3 compounds from ChEMBL document CHEMBL1156464, “Unique antiviral mechanism discovered in anti-hepatitis B virus research with a natural product analogue” (Proc Natl Acad Sci U S A, 2007) can be followed below.

SMILES strings stand for the structures. Activity calls are given as the source filed them. No cut-off for these calls is given here.

As usually defined, the CC50 is the concentration giving 50% cytotoxicity. Low readings indicate greater toxicity to the cells, high ones lower toxicity to the cells. Usually IC50 stands for the concentration at which inhibition is half-maximal.

Data set [1] is described as follows: Down regulation of HNH3-beta in human HepG2(2.2.15) cells expressing HBV at 0.3 uM by Western blotting. Type of data set: functional, cell-based. A general note: A western blot detects proteins with antibodies after separation by electrophoresis.
Data set [2] is described as follows: Cytotoxicity against HBV transfected human HepG2 cells by MTT assay. Type of data set: cell-based.
For data set [3], the system named is Hepatitis B virus. Nature of the data set: Antiviral activity against HBV in mouse ayw wild type HBV-Met cells assessed as inhibition of viral DNA replication. The format is functional, organism-based.
The test system of data set [4] is human papillomavirus 11. The data set is described as follows: Antiviral activity against human papilloma virus 11. The format is functional, organism-based.
The nature of data set [5]: Down regulation of HNH4-alpha in human HepG2(2.2.15) cells expressing HBV at 0.3 uM by Western blotting. Type of data set: functional, cell-based.
Data set [6] concerns Hepatitis B virus. The data set is described as follows: Antiviral activity against HBV in human HepG2(2.2.15) cells assessed as inhibition of viral pre-genomic RNA replication. Type of data set: functional, organism-based.
For data set [7], the system named is Cytomegalovirus. Nature of the data set: Inhibition of CMV promoter in human HepG2(2.2.15) cells by luciferase reporter gene assay after 16 to 24 hrs. Type of data set: functional, organism-based. The following applies: TDE = time-dependent effect. (In general: A reporter such as luciferase makes a cellular process visible.)
Data set [8] relates to HepG2 2.2.15. The data set is described as follows: Decrease in binding of HBV promoter preC/C-EnhII to human FTF in HepG2(2.2.15) cells. The format is cell-based.
Data set [9] is described as follows: Down regulation of HNH3-alpha mRNA in human HepG2(2.2.15) cells expressing HBV at 0.3 uM by Northern blotting. Type of data set: functional, cell-based.
The subject of data set [10] is Hepatitis B virus. Nature of the data set: Antiviral activity against HBV in human HepD2 cells assessed as inhibition of viral 2.4/2.1RNA replication. Type of data set: functional, organism-based.
Data set [11] concerns HepG2. Nature of the data set: Decrease in binding of HBV promoter preC/C-EnhII to HNF4-1 in human HepG2 cells. The format is cell-based.
Data set [12] relates to HepG2. The data set is described as follows: Down regulation of HNH3-beta in human HepG2 cells expressing HBV at 0.3 uM by Western blotting. The format is functional, cell-based.
In data set [13] the test system is Hepatitis B virus. Nature of the data set: Inhibition of HBV promoter in human HepG2(2.2.15) cells by luciferase reporter gene assay. The format is functional, organism-based.
The subject of data set [14] is Hepatitis B virus. Nature of the data set: Antiviral activity against HBV in human HepW10 cells assessed as inhibition of viral pre genomic RNA replication. The format is functional, organism-based.
Data set [15] deals with Hepatitis B virus. Nature of the data set: Antiviral activity against HBV in mouse HBV-Met cells assessed as inhibition of viral 2.4/2.1RNA replication. Type of data set: functional, organism-based.
Data set [16] in a line: Cytotoxicity against HBV transfected human ayw wild type HepG2(2.2.15) cells by MTT assay. The following applies: HBV-transfected ayw wild type HepG2(2.2.15) cells. The format is cell-based. In general terms: Tetrazolium assays rely on reduction of a dye to a coloured formazan, in cell work by metabolically active cells.
Data set [17] deals with HepG2 2.2.15. The data set is described as follows: Decrease in binding of HBV promoter preC/C-EnhII to human HNF4-1 in HepG2(2.2.15) cells. The format is cell-based.
Data set [18] deals with Hepatitis B virus. Nature of the data set: Inhibition of HBV promoter in human HepG2 cells by luciferase reporter gene assay. Type of data set: functional, organism-based.
For data set [19], the system named is Hepatitis B virus. The data set is described as follows: Decrease in HBV DNA level in human HepG2 cells at 2 uM after 48 hrs by time course study. Type of data set: functional, organism-based.
The subject of data set [20] is Hepatitis B virus. The data set is described as follows: Antiviral activity against HBV in human HepG2(2.2.15) cells assessed as inhibition of viral 2.4/2.1RNA replication. Type of data set: functional, organism-based.
A short description of data set [21]: Cytotoxicity against HBV transfected human adriamycin-resistant wild type HepW10 cells by MTT assay. Type of data set: cell-based.
In data set [22] the test system is HepG2. The data set is described as follows: Down regulation of HNH4-alpha in human HepG2 cells expressing HBV at 0.3 uM by Western blotting. The format is functional, cell-based.
The subject of data set [23] is Hepatitis B virus. The data set is described as follows: Antiviral activity against HBV in human HepW10 cells assessed as inhibition of viral 2.4/2.1RNA replication. The format is functional, organism-based.
Data set [24] relates to HepG2. The data set is described as follows: Decrease in binding of HBV promoter preC/C-EnhII to HNF3 in human HepG2 cells. Type of data set: cell-based.
Data set [25] deals with Hepatitis B virus. Nature of the data set: Antiviral activity against HBV in adriamycin-resistant wild type HepW10 cells assessed as inhibition of viral DNA replication. The format is functional, organism-based.
The subject of data set [26] is Hepatitis B virus. The data set is described as follows: Antiviral activity against HBV in human HepD2 cells assessed as inhibition of viral pre genomic RNA replication. Type of data set: functional, organism-based.
Data set [27] concerns Human immunodeficiency virus. The data set is described as follows: Antiviral activity against HIV. The following applies: Human immunodeficiency virus 1. The format is functional, organism-based.
A short description of data set [28]: Cytotoxicity against HBV transfected human adriamycin-resistant HepD2 cells with RTM20V and RTV180M mutation by MTT assay. Type of data set: cell-based.
Data set [29] concerns Hepatitis B virus. The data set is described as follows: Antiviral activity against HBV in HBV-Met cells assessed as inhibition of viral pre genomic RNA replication. The format is functional, organism-based.
In data set [30] the test system is Hepatitis B virus. The data set is described as follows: Decrease in HBV protein level in human HepG2 cells at 2 uM after 18 to 24 hrs by time course study. The format is functional, organism-based.
The subject of data set [31] is Hepatitis B virus. Nature of the data set: Antiviral activity against HBV in ayw wild type HepG2(2.2.15) cells assessed as inhibition of viral DNA replication. The format is functional, organism-based.
For data set [32], the system named is HepG2. Nature of the data set: Decrease in binding of HBV promoter preC/C-EnhII to FTF2 in human HepG2 cells. Type of data set: cell-based.
Data set [33] concerns Hepatitis B virus. Nature of the data set: Effect on HBV viral core protein degradation on cyclohexamide terminated cellular protein synthesis in human HepG2(2.2.15) cells at 0.3 uM. The format is functional, organism-based.
Data set [34] has as its system HepG2 2.2.15. Nature of the data set: Decrease in binding of HBV promoter preC/C-EnhII to human HNF4-2 in HepG2(2.2.15) cells. The format is cell-based.
Data set [35] concerns Human gammaherpesvirus 4. Nature of the data set: Antiviral activity against Epstein-Barr virus. The format is functional, organism-based.
Data set [36] deals with HepG2. Nature of the data set: Decrease in binding of HBV promoter preC/C-EnhII to HNF4-2 in human HepG2 cells. Type of data set: cell-based.
For data set [37], the system named is Hepatitis B virus. Nature of the data set: Decrease in HBV RNA in human HepG2 cells at 2 uM after 18 to 24 hrs by time course study. The format is functional, organism-based.
Data set [38] relates to Human alphaherpesvirus 1. Nature of the data set: Antiviral activity against HSV1. The format is functional, organism-based.
Data set [39] has as its system Hepatitis B virus. Nature of the data set: Antiviral activity against HBV assessed as inhibition of viral replication. Type of data set: functional, organism-based.
Data set [40] deals with Hepatitis C virus. The data set is described as follows: Antiviral activity against hepatitis C virus. Type of data set: functional, organism-based, Hepacivirus hominis.
Data set [41] deals with Hepatitis B virus. The data set is described as follows: Antiviral activity against HBV in adriamycin-resistant HepD2 cells with RTM20V and RTV180M mutation assessed as inhibition of viral DNA replication. Type of data set: functional, organism-based.
Data set [42] has as its system HepG2 2.2.15. Nature of the data set: Decrease in binding of HBV promoter preC/C-EnhII to human HNF3 in HepG2(2.2.15) cells. Type of data set: cell-based.
For data set [43], the system named is Hepatitis B virus. The data set is described as follows: Effect on virus RNA stability on doxycyclin-induced HBV pre genomic RNA production in Met-On-TRE HBV cells treated with 0.3 uM drug after doxycycline removal. The format is functional, organism-based.
Data set [44] concerns Hepatitis B virus. The data set is described as follows: Effect on virus RNA stability on doxycyclin-induced HBV pre genomic RNA production in Met-On-TRE HBV cells treated with 3 uM drug after doxycycline removal. Type of data set: functional, organism-based.

Consider `O=c1[nH][nH]c(=O)c2c(-c3ccc4c(c3)OCO4)c3c4c(ccc3cc12)OCO4`, for which the result in data set [1], in data set [5], in data set [8], in data set [12], in data set [17] and in data set [19] was Active. Also, the result in [30], in [32], in data set [34], in data set [37] and in data set [42] was Active. Also, the CC50 in data set [2] came to 29000 nM; in data set [16], 9000 nM; in [21], 13000 nM; in data set [28], 12000 nM. Further, the IC50 in [3] is 300 nM; in data set [4], 5800 nM; in data set [6] it was 300 nM; in [10] it was 1500 nM; in data set [13], 80 nM; in data set [14], 400 nM. The IC50 in data set [15] was 1000 nM; in [18] it was greater than 1000 nM; in [20] it was 900 nM; in data set [23], greater than 3000 nM; in data set [25] it was 200 nM; in [26], 90 nM. The IC50 in data set [27] was 15000 nM; in [29], 500 nM; in data set [31], 80 nM; in data set [35], greater than 25000 nM; in data set [38], 1200 nM; in [39] it was 100 nM. The IC50 in data set [40] was determined as 10000 nM; in data set [41] it was 30 nM. Further, the Activity entry in data set [7] is “tde”. Further, the result in [9], in [11], in data set [22], in [24], in data set [33] and in data set [36] was inactive. Also, in data set [43], the outcome was inactive.

Turning to `O=C1NCc2c1cc1ccc3c(c1c2-c1ccc2c(c1)OCO2)OCO3`, the IC50 in data set [4] is 200 nM; in [13] it was 80 nM; in [18], greater than 1000 nM; in [27], 4000 nM; in data set [35], 11000 nM; in [38], 290 nM. Further, the IC50 in [39] worked out at 80 nM; in data set [40] it was 1000 nM.

With `Nc1ccn([C@@H]2CS[C@H](CO)O2)c(=O)n1` [LAMIVUDINE], the CC50 is 100000 nM in [2], greater than 100000 nM in data set [16], greater than 100000 nM in data set [21] and greater than 100000 nM in data set [28]. Also, the outcome in data set [44], in [6], in data set [10], in data set [14], in data set [15] and in [20] was inactive. For the same compound, the outcome in data set [23], in data set [26] and in data set [29] was inactive. Moreover, the concentration for half-maximal inhibition (IC50) is 200 nM in data set [3]; 80 nM in data set [13]; greater than 1000 nM in data set [18]; 100 nM in data set [25]; 50 nM in data set [31]; greater than 3000 nM in data set [41].
